{"source": "patent US20230192787A1", "about": "“DIAGNOSIS METHODS, DIAGNOSTIC AGENTS, AND THERAPEUTIC AGENTS AGAINST ALZHEIMER'S DISEASE AND FRONTOTEMPORAL LOBAR DEGENERATION, AND SCREENING METHODS FOR THESE AGENTS” (National University Corporation Tokyo Medical and Dental …, priority 2013, published 2023)", "key": {"5×FAD mice": {"tested_on": "5×FAD mice", "assay": "In vivo two-photon imaging of dendritic spines after administering kinase inhibitors/activator", "design": "species or system mouse", "settings": "5×FAD mice (12 weeks old); for spine densities by morphological type (thin, mushroom, stubby) / spine dynamics: spine formation and stability: 36 hours and 60 hours after administration; for dendritic spine density (total spine density): layer 1 of retrosplenial cortex, 36 hours and 60 hours after administration by osmotic pump", "protocol": "(§1) Two-photon imaging of dendritic spine was performed using a laser-scanning microscope system FV1000MPE2 (manufactured by Olympus Corporation) equipped with an upright microscope (BX61WI, manufactured by Olympus Corporation, a water-immersion objective lens (XLPlanN25xW; numerical aperture, 1.05), and a pulsed laser (MaiTai HP DeepSee, manufactured by Spectra Physics). In the imaging, EGFP was excited by light at a wavelength of 890 nm, and scanned in a range of 500 to 550 nm. Moreover, the scanned region for three-dimensional imaging was 100×100 μm (1 μm Z-axis steps, 1024×1024 pixels).\n(§2) Additionally, two weeks before the imaging, adeno-associated virus 1 (AAV1)-EGFP with the synapsin 1 promoter (titer: 1×10^10 vector genomes/mL, 1 μL) was injected into the retrosplenial cortex (−2.0 mm anteroposterior and 0.6 mm mediolateral from the bregma, depth 1 mm) of mice under anesthesia with 2.5% isoflurane. Then, two weeks thereafter, the dendritic spines of the first layer (layer 1) of the cerebral cortex were observed through a thinned skull window according to the method described in “Yang, G. et al., Nat. Protoc., 2010, Vol. 5, pp. 201 to 208.”\nMoreover, when the influence of kinase inhibition on dendritic spines was imaged, Alzet micro-osmotic pumps (model: 1003D, manufactured by Durect Corporation) filled with PBS/1% DMSO containing 1 μM Go6976 (manufactured by Calbiochem), 0.4 mM KN-93 (manufactured by Cayman Chemical), or 1 μM MLR1023 (manufactured by Glixx Laboratories) were implanted into mice under anesthesia with O2/isoflurane. […] Note that, regarding the PKC inhibitor Go6976, see Yan, Z. et al., Proc. Natl. Acad. Sci. U.S.A., 1999, Vol. 96, pp. 11607 to 11612. Regarding the CaMK inhibitor KN-93, see Galan, A. et al., Pain, 2004, Vol. 112, pp. 315 to 323. Regarding the Lyn activator MLR1023, see Saporito, M. S. et al., J. Pharmacol. Exp. Ther., 2012, Vol. 342, pp. 15 to 22.\nIn addition, the spine density, spine length, spine maximum diameter, and spine neck minimum diameter were measured from the obtained images using image analysis software IMARIS 7.2.2 (manufactured by Bitplane).\nMore concretely, the effect of the kinases on the synaptic pathology in the 5×FAD mice was analyzed by administering inhibitors and so forth against these kinases into the subarachnoid spaces of the mice. FIGS. 4 to 9 show the obtained result."}, "[1]": {"tested_on": "phosphorylated b-RAF protein", "assay": "Western blot of cerebral cortexes of treated PGRN-KI mice, phosphorylated b-RAF", "format": "in vivo, mouse", "protocol": "(§3) FIG. 27 is a figure for illustrating the result of western blot analysis on the cerebral cortexes of wild-type mice (WT) and the PGRN-KI mice to which vemurafenib was administered. […] “Anti-p-Braf” and “Anti-p-PKC” respectively show the analysis result of phosphorylated b-RAF protein and the analysis result of phosphorylated PKC protein. […] The significant differences were evaluated based on the P-value calculated by Student's independent t-test.\n(§4) FIG. 28 is a figure for illustrating the result of western blot analysis on the cerebral cortexes of the PGRN-KI mice to which thalidomide was administered. […] “Anti-p-Braf”, “Anti-Braf”, and “Anti-p-PKC” respectively show the analysis result of phosphorylated b-raf protein, the analysis result of b-raf protein, and the analysis result of phosphorylated PKC protein. […] Further, in the figure, one asterisk indicates p<0.05 in Student's independent t-test, and two asterisks indicate p<0.01 in Student's independent t-test.\n(§5) Moreover, the cerebral cortexes of the PGRN-KI mice treated with the agent were analyzed by western blot."}, "PGRN-KI mice [2]": {"tested_on": "PGRN-KI mice", "assay": "In vivo two-photon imaging of synaptic spines in retrosplenial cortex of PGRN-KI mice (recovery experiment)", "design": "species or system mouse", "protocol": "as §1, §2\nA pharmacological recovery experiment was conducted on the PGRN-KI mice as follows. […]\nIn addition, analyzed was whether or not vemurafenib and/or tau knockdown enabled recovery of spine related phenotype. […]"}, "PGRN-KI mice [3]": {"tested_on": "PGRN-KI mice", "assay": "Immunohistological analysis of protein aggregation in brains of PGRN-KI mice", "format": "in vivo, mouse", "excerpt": "To be more specific, as the first hypothesis, the aforementioned therapeutic effect by suppressing b-raf phosphorylation was presumably based on the elimination of protein aggregation in the nerve by vemurafenib or thalidomide. Accordingly, analyzed was the recovery effect of vemurafenib or thalidomide on the protein aggregation in the cerebral cortexes of the PGRN-KI mice."}, "PGRN-KI mice [4]": {"tested_on": "PGRN-KI mice", "assay": "Morris water maze test in FTLD model mice", "format": "in vivo, mouse", "settings": "provided every day over 6 weeks from 6 weeks old", "protocol": "In this test, the mice received a 60-second trial four times a day for 5 days. The time until each mouse reached the platform was measured.\nFurthermore, the PGRN-KI mice were also subjected to six behavioral tests as in the case of Alzheimer's disease model mice described above. As a result, abnormalities regarding anxiety memory and anxiety-related memory were not observed in the open-field test, the light-dark box test, and the elevated plus maze test. […] Moreover, in the Morris water maze test, a statistically significant decrease was observed from the age of 3 months in the time during which the mice stayed in the target region or the number of times the mice passed through the target. […] Note that, in the Morris water maze test using the PGRN-KI mice, the mice received the 60-second trial four times a day for 5 days to learn the position of the platform (target region). […]\nTo be more specific, in accordance with the protocol shown in FIG. 21, a b-raf specific inhibitor vemurafenib or PBS was provided to the 6-week-old PGRN-KI mice every day over 6 weeks. Then, the behaviors of these mice were evaluated in the Morris water maze test and the fear-conditioning test. […]\nMeanwhile, the therapeutic effect of thalidomide was also tested. […] The behaviors of these mice were evaluated by the above two tests. […]"}, "PGRN-KI mice [5]": {"tested_on": "PGRN-KI mice", "assay": "Fear-conditioning test in FTLD model mice", "format": "in vivo, mouse", "settings": "provided every day over 6 weeks from 6 weeks old", "protocol": "In this test, first, a mouse received a sound stimulus (65-dB white noise, 30 seconds) together with an electrical stimulus (0.4 mA, 2 seconds) on the foot. Then, after 24 hours, the mouse was measured for the frequency of the freezing reaction when the mouse received a sound stimulus but no electrical stimulus in the same chamber.\nTo be more specific, in accordance with the protocol shown in FIG. 21, a b-raf specific inhibitor vemurafenib or PBS was provided to the 6-week-old PGRN-KI mice every day over 6 weeks. Then, the behaviors of these mice were evaluated in the Morris water maze test and the fear-conditioning test. FIGS. 22 and 23 show the obtained result.\nMeanwhile, the therapeutic effect of thalidomide was also tested. Note that thalidomide is known to suppress the TNF signal transduction pathway. Concretely, in accordance with the protocol shown in FIG. 24, thalidomide was administered to the PGRN-KI mice by peritoneal cavity injection every day for the same period as that in the protocol using the b-raf inhibitor. The behaviors of these mice were evaluated by the above two tests. FIGS. 25 and 26 show the obtained result."}, "[6]": {"tested_on": "phosphorylated PKC protein", "assay": "Western blot of cerebral cortexes of treated PGRN-KI mice, phosphorylated PKC", "format": "in vivo, mouse", "protocol": "as §3, §4, §5"}}, "note": "“Also recorded” adds a separate entry of the source.", "data": [{"smiles": "COc1ccc(S(=O)(=O)N(CCO)c2ccccc2CN(C)C/C=C/c2ccc(Cl)cc2)cc1", "note": "[KN-93]", "values": [{"measurement": "spine densities by morphological type (thin, mushroom, stubby)", "setting": "5×FAD mice", "result": "the decreases were recovered"}, {"measurement": "spine dynamics: spine formation and stability", "setting": "5×FAD mice", "result": "had a therapeutic effect on the spine formation and stability"}, {"measurement": "dendritic spine density (total spine density)", "setting": "5×FAD mice", "result": "recovered the decrease of spines"}]}, {"smiles": "Cc1cccc(Oc2cnc(O)nc2)c1", "note": "[MLR1023]", "values": [{"measurement": "spine densities by morphological type (thin, mushroom, stubby)", "setting": "5×FAD mice", "result": "the decreases were recovered"}, {"measurement": "spine dynamics: spine formation and stability", "setting": "5×FAD mice", "result": "had a therapeutic effect on the spine formation and stability"}, {"measurement": "dendritic spine density (total spine density)", "setting": "5×FAD mice", "result": "recovered the decrease of spines"}]}, {"smiles": "CCCS(=O)(=O)Nc1ccc(F)c(C(=O)c2c[nH]c3ncc(-c4ccc(Cl)cc4)cc23)c1F", "note": "[vemurafenib, N-{3-[5-(4-chlorophenyl)-1H-pyrrolo[2,3-b]pyridine-3-carbonyl]-2,4-difluorophenyl}propane-1-sulfonamide]", "values": [{"measurement": "b-raf phosphorylation", "setting": "[1]", "result": "suppressed the b-raf phosphorylation"}, {"measurement": "number of spines", "setting": "PGRN-KI mice [2]; PGRN-KI mice (12 weeks old), vemurafenib 1.7 μM by osmotic pump for 3 days, shRNA imaged on Day 5", "result": "recovered the number of spines; also recorded: had a recovery effect on the number of spines"}, {"measurement": "spine volume", "setting": "PGRN-KI mice [2]; PGRN-KI mice, trend, not a statistically significant difference", "result": "decreased the spine volume"}, {"measurement": "FUS and p62 inclusion (IB)", "setting": "PGRN-KI mice [3]", "result": "no significant effect"}, {"measurement": "transition of TDP43 into the cytoplasm", "setting": "PGRN-KI mice [3]", "result": "no large change was observed"}, {"measurement": "scores in the Morris water maze test", "setting": "PGRN-KI mice [4]", "result": "remarkably recovered the scores in the two tests"}, {"measurement": "scores in the fear-conditioning test", "setting": "PGRN-KI mice [5]", "result": "remarkably recovered the scores in the two tests"}, {"measurement": "PKC phosphorylation", "setting": "[6]", "result": "also suppressed the PKC phosphorylation"}]}, {"smiles": "O=C1CCC(N2C(=O)c3ccccc3C2=O)C(=O)N1", "note": "(centres unmarked) [thalidomide]", "values": [{"measurement": "b-raf phosphorylation", "setting": "[1]", "result": "the b-raf phosphorylation was suppressing"}, {"measurement": "FUS and p62 inclusion (IB)", "setting": "PGRN-KI mice [3]", "result": "no significant effect"}, {"measurement": "transition of TDP43 into the cytoplasm", "setting": "PGRN-KI mice [3]", "result": "no large change was observed"}, {"measurement": "scores in the Morris water maze test", "setting": "PGRN-KI mice [4]", "result": "beneficial effects were finally verified"}, {"measurement": "scores in the fear-conditioning test", "setting": "PGRN-KI mice [5]", "result": "beneficial effects were finally verified"}, {"measurement": "PKC phosphorylation", "setting": "[6]", "result": "the PKC phosphorylation was not suppressed"}]}, {"smiles": "Cn1c2ccccc2c2c3c(c4c5ccccc5n(CCC#N)c4c21)CNC3=O", "note": "[Go6976]", "values": [{"measurement": "spine densities by morphological type (thin, mushroom, stubby)", "setting": "5×FAD mice", "result": "the decreases were recovered; also recorded: increased"}, {"measurement": "spine dynamics: spine formation and stability", "setting": "5×FAD mice", "result": "enhanced the spine formation and stability"}, {"measurement": "dendritic spine density (total spine density)", "setting": "5×FAD mice", "result": "recovered the decrease of spines; also recorded: increased the total spine density"}]}]}
